Assay results reported in ChEMBL document CHEMBL4825681, “Iron-Catalyzed Skeletal Conversion of Lathyrane to Premyrsinane Euphorbia Diterpenes and Their Cytotoxic Activities” (J Nat Prod, 2021).

test system: 4T1; assay: Cytotoxicity against mouse 4T1 cells assessed as reduction in cell viability incubated for 24 hrs by MTT assay; type: functional, cell-based; settings: 4T1, 24 h

SMILES	IC50 [nM]
C=C1CC[C@H]2[C@@H](/C=C(\C)C(=O)[C@@]3(OC(C)=O)C[C@H](C)[C@H](OC(=O)c4ccccc4)[C@@H]3[C@H]1OC(C)=O)C2(C)C	> 10000
CC(=O)O[C@@H]1[C@H]2[C@@H](OC(=O)c3ccccc3)[C@@H](C)C[C@]2(OC(C)=O)C(=O)[C@H](C)[C@@H]2[C@@H]3[C@H](CC[C@]21C)C3(C)C	8200
CC(=O)O[C@H]1C(=O)[C@@]2(C)[C@H]([C@H](OC(=O)c3ccccc3)[C@]3(O)C[C@H](OC(=O)[C@H](O)[C@@H](NC(=O)c4ccccc4)c4ccccc4)C(C)=C1C3(C)C)[C@]1(OC(C)=O)CO[C@@H]1C[C@@H]2O [PACLITAXEL]	800
CC(=O)O[C@@H]1[C@H]2[C@@H](OC(=O)c3ccccc3)[C@@H](C)C[C@]2(OC(C)=O)C(=O)[C@@H](C)[C@@H]2[C@@H]3[C@H](CC[C@]21C)C3(C)C	2500
